Experimental data as given in patent US10391084B2, “Methods and compositions to treat cancer” (CHILDREN'S HOSPITAL MEDICAL CENTER, priority 2013, dated 2019).

Legend:
[1] = system: midkine promoter coupled to a luciferase reporter gene; assay: Midkine promoter-luciferase reporter screen in stably transfected HEK293 cells, dose-response; assay type: cell-based; conditions: for EC50: Homo sapiens, HEK293 reporter cells, midkine expression upregulated with retinoic acid
Description: A library of compounds was screened for activity to reduce expression of midkine in vitro. HEK293 cells were stably transfected with the pGL4 vector comprising a midkine promoter coupled to a luciferase reporter gene. […] Changes in luciferase production were measured to access the inhibitory activity of the test compounds. The primary screen included 44,000 test compounds. Test compounds that reduced cell viability by more than 50% were eliminated from the screen. From the primary screen, 351 test compounds were further examined. From the secondary screen, 78 test compounds were examined using a dose-response assay, and the EC50 for the test compounds was determined.
In order to find a therapeutic compound that inhibits MDK expression, a MDK reporter cell line by stably transfecting HEK293 cells with a MDK promoter-fused luciferase construct was developed. This modified cell line was used to screen 44,000 compounds at the Drug Discovery Center at the University of Cincinnati. See Example 1. Detection of luciferase activity was used to identify MDK inhibitors.

[2] = system: H441 lung adenocarcinoma cells; assay: Cell viability assay, trypan blue exclusion, H441; assay type: cell-based, human
Excerpt: (§1) Cell Lines and Culture Conditions: the human pulmonary adenocarcinoma cells H322, H358, H441 and A549 and the human lung squamous cell carcinoma cells H520 were obtained from the American Type Culture Collection (Manassas, Va.) and grown in RPMI 1640 (H322, H358, H520) or high glucose Dulbecco's modified Eagle medium (H441, A549 cells) supplemented with 10% heat-inactivated fetal bovine serum. The human malignant mesothelioma cells ACC-MESO-1 (MESO-1) obtained from JCRB Cell Bank (Osaka, Japan) and the human lung squamous cell carcinoma cells SQ5 were grown in RPMI 1640 supplemented with 10% heat-inactivated fetal bovine serum. The normal human lung fibroblasts (NHLF) obtained from Clonetics (San Diego, Calif.) were grown in high glucose Dulbecco's modified Eagle medium. All cell lines were cultured in 10% CO2 at 37° C.
The following day 100 pmol of Smart Pool MK siRNA or nontargeting siRNA (Dharmacon, Perbio Science, France) was transfected using 2 μl Lipofectamine 2000 (Invitrogen Life Technologies, Carlsbad, Calif.) according to the manufacturer's instructions. […]
Cell viability assay: H441 cells, A549 cells, H520 cells, HEK293 cells and NHLF were plated in 24-well plates at a density of 1×10^5 cells and cultured at 37° C. for 24 hours. […] Viable cells were assessed by trypan blue exclusion. […]

[3] = system: H520 lung squamous cell carcinoma cells; assay: Cell viability assay, trypan blue exclusion, H520; assay type: cell-based, human; conditions: H520, 0 to 500 nM, 48 hours after treatment
Excerpt: as §1
Cell viability assay: H441 cells, A549 cells, H520 cells, HEK293 cells and NHLF were plated in 24-well plates at a density of 1×10^5 cells and cultured at 37° C. for 24 hours. Medium was removed by aspiration and replaced with fresh culture medium containing iMDK dissolved in DMSO (10, 50, 100, 500 nmol/L). DMSO alone was used as the control. Cells were treated for 48 hours and collected by trypsinization. Viable cells were assessed by trypan blue exclusion. […]

[4] = system: HEK293 embryonic kidney cells; assay: Cell viability assay, trypan blue exclusion, HEK293; assay type: cell-based; conditions: HEK293, 0 to 500 nM, 48 hours after treatment
Description: Cell viability assay: H441 cells, A549 cells, H520 cells, HEK293 cells and NHLF were plated in 24-well plates at a density of 1×10^5 cells and cultured at 37° C. for 24 hours. Medium was removed by aspiration and replaced with fresh culture medium containing iMDK dissolved in DMSO (10, 50, 100, 500 nmol/L). DMSO alone was used as the control. Cells were treated for 48 hours and collected by trypsinization. Viable cells were assessed by trypan blue exclusion. Recombinant MDK was purchased from R&D Systems (Minneapolis, Minn.) and reconstituted in water for block experiments. For MDK block experiments, H441 cells were cultured in Dulbecco's modified Eagle medium supplemented with 1% heat-inactivated fetal bovine overnight and recombinant MDK (25 nM) or/and iMDK (25 nM) was added for an additional 48 hours.

H441 cells [5] = assay: Flow cytometric analysis for apoptosis (sub-G0/G1 DNA content), H441; assay type: cell-based, human; conditions: 72 hours, DMSO control 1.24%
Description: (§2) Flow cytometric analysis for apoptosis: cells were plated in 24-well plates at a density of 0.5×10^5 cells per well 1 day before the treatments. After 72 hours, cells were harvested and washed once with PBS. Cells were resuspended in PBS containing 0.2% Triton X-100 and 1 mg/ml RNase for 5 min at room temperature and then stained with propidium iodide at 50 μg/ml to determine sub-G0/G1 DNA content using a FACScan. Doublets, cell debris, and fixation artifacts were gated out, and sub-G0/G1 DNA content was determined using Cell Quest Ver. 3.3 software.

NHLF cells = assay: Flow cytometric analysis for apoptosis (sub-G0/G1 DNA content), NHLF; assay type: cell-based, human; conditions: DMSO control 0.32%
Description: as §2

H441 cells [6] = assay: Hoechst staining for apoptotic morphology in H441 cells; assay type: cell-based, human; conditions: H441, Hoechst 33342, 48 hours after treatment
Description: Hoechst staining: the morphologic characteristics of apoptosis were evaluated using Hoechst 33342 dye (Molecular Probes, Eugene, Oreg.), which stains DNA. Cells were incubated with 1 μg/ml Hoechst dye and then visualized under a fluorescence microscope (IX81, Olympus Medical Systems Corp., Tokyo, Japan) (Ogawa N, et al., Int. J. Cancer. 1997; 73:367-70).

caspase-3 = assay: Immunoblot of caspase-3 cleavage in H441 cells; assay type: cell-based, human; conditions: H441, even at the lowest concentrations (5 nM), 48 hours after treatment
Description: (§3) Immunoblot analysis: cells were lysed in ice-cold lysis buffer [1% Triton X-100, 20 mM Tris-HCl (pH 8.0), 137 mM NaCl, 10% glycerol (v/v), 2 mM EDTA, 1 mM sodium orthovanadate (v/v), 1 mM phenylmethylsulfonyl fluoride]. Cell lysates were clarified by centrifugation (10 min at 15,000×g at 4° C.) and protein concentration determined using the BCA protein assay (Thermo Fisher Scientific, Rockford, Ill.). Equal amounts of protein were separated on an SDS-PAGE gel. The gel was electrophoretically transferred to a Hybond PVDF transfer membrane (Amersham, Arlington Heights, Ill.) and incubated with primary and secondary antibodies according to the Supersignal® West Pico chemiluminescence protocol (Pierce, Rockford, Ill.). Antibody specific for β-actin antibody was obtained from Sigma (St. Louis, Mo.) and antibody specific for human MDK was obtained from Abcam (Cambridge, UK). Antibody specific for caspase-3, PI3 kinase p85, phosphorylated-PI3K p85 (Tyr458)/p55 (Tyr199), AKT, phosphorylated-AKT (Ser473), Bad, XIAP, survivin were obtained from Cell Signaling Technology (Beverly, Mass.). Antibody specific for VEGF was purchased from Santa Cruz Biotechnology (Santa Cruz, Calif.). Secondary horseradish peroxidase-conjugated antibodies were obtained from Jackson Immunoresearch Laboratories (West Grove, Pa.). […]

PI3K = assay: Immunoblot of PI3K phosphorylation in H441 cells; assay type: cell-based, human; conditions: H441, dose- and time-dependent
Description: as §3

AKT = assay: Immunoblot of AKT phosphorylation in H441 cells; assay type: cell-based, human; conditions: H441, dose- and time-dependent
Description: as §3

XIAP = assay: Immunoblot of XIAP in H441 cells; assay type: cell-based, human; conditions: H441, dose- and time-dependent
Description: as §3

survivin = assay: Immunoblot of survivin in H441 cells; assay type: cell-based, human; conditions: H441, dose- and time-dependent
Description: as §3

BAD = assay: Immunoblot of BAD in H441 cells; assay type: cell-based, human; conditions: H441, dose- and time-dependent
Description: as §3

[7] = system: xenografts derived from H441 lung adenocarcinoma cells; assay: H441 lung adenocarcinoma xenograft in nude mice; assay type: in vivo, BALB/c nude mice; conditions: 9 mg/kg intraperitoneal
Description: (§4) Mouse experiments: human lung cancer xenografts were established in 6-wk-old female BALB/c nude mice (Charles River Laboratories Japan, Kanagawa, Japan) by subcutaneous (s.c.) inoculation of H441 cells (1×10^6/50 μl) mixed with Matrigel® (BD Pharmingen, San Diego, Calif.; 50 μl) into the dorsal flank (Watanabe N, et al., Clin. Cancer Res. 2008; 14:4631-9). The mice were randomly assigned into three groups (n=8 per group) 14 days after tumor inoculations. One group of mice was intraperitonially injected with 100 μl solution containing iMDK (9 mg/kg) three days per week (on days 1, 3, 5, 8, 10) and another group of mice was injected five days per week (on days 1, 2, 3, 4, 5, 8, 9, 10). DMSO was injected into the control group. Tumors were measured two to three times a week, and tumor volume was calculated as a×b^2×0.5, where a and b were large and small diameters, respectively. On day 10, all mice were sacrificed after body weight was measured and tumors were removed and prepared for histology. For analysis of serum AST and ALT, blood was drawn from the heart 48 hours after intraperitonially injected with 100 μl solution containing iMDK (9 mg/kg). DMSO was injected into the control group and four mice were used for each group.
For immunohistochemistry, sections were sequentially deparaffinized through a series of xylene, graded ethanol, and water immersion steps. After being autoclaved in 0.2% citrate buffer for 15 minutes, sections were incubated with 3% hydrogen peroxide for 30 minutes to block endogenous peroxidase activity. A primary antibody specific for PI3 kinase p85, phosphorylated-PI3K p85 (Tyr458)/p55 (Tyr199) from Cell Signaling Technology and for MDK from Abcam were used. Specimens were incubated overnight at 4° C. with a 1:200 dilution of antibody followed by three washes with TBS. The slides were treated with streptoavidin-biotin complex (Envision System labeled polymer, horseradish peroxidase (HRP), Dako, Carpinteria, Calif.) for 60 minutes at a dilution of 1:100. […]

[8] = Systemic toxicity in mice (body weight, serum AST and ALT); assay type: in vivo, BALB/c nude mice
Description: as §4

[9] = 48 hours after 9 mg/kg intraperitoneal

Work on `O=c1oc2ccccc2cc1-c1cn2cc(Cc3ccc(Cl)cc3)sc2n1` [Example compound 1] yielded an EC50 [1] of 14 nM.

For `O=c1oc2ccccc2cc1-c1cn2cc(Cc3ccc(F)cc3)sc2n1` [Example compound 2, 3-[2-(4-fluorobenzyl)imidazo[2,1-beta][1,3]thiazol-6-yl]-2H-chromen-2-one], the “activity to reduce expression of midkine (in words)” value ([1]; reporter screen, dose response) was “exceptional activity”, the cell growth ([2]; H441, 0 to 500 nM, 48 hours after treatment) was “dose-dependently inhibited cell growth” and the “suppression of cell growth with pretreatment of recombinant MDK” value ([2]; H441, recombinant MDK 25 nM, iMDK 25 nM, 48 hours) was “partially blocked”. The cell growth [3] was “dose-dependently inhibited cell growth”, the cell growth [4] was “dose-dependently inhibited cell growth” and the “sub-G0/G1 DNA content” value (H441 cells [5]; H441, 10 nM) was 37.00%. For the same molecule, the “sub-G0/G1 DNA content” value (H441 cells [5]; H441, 25 nM) was 60.91%, the “sub-G0G1 DNA content” value (NHLF cells; 10 nM) was 0.52% and the “sub-G0G1 DNA content” value (NHLF cells; 25 nM) was 1.51%. For the same molecule, the nuclear fragmentation (H441 cells [6]) was “induced nuclear fragmentation in a dose-dependent manner”, the “cleaved forms of caspase-3” value (caspase-3) was “induced” and the “Phosphorylation of PI3K” value (PI3K) was “suppressed”. The “Phosphorylation of AKT” value (AKT) was “suppressed”, the XIAP expression (XIAP) was “reduced” and the survivin expression (survivin) was “reduced”. The BAD expression (BAD) was “induced”, the “volume of the tumors versus control group” value ([7]; 3 or 5 times a week) was “significantly lower” and the lung tumor growth ([7]; 3 or 5 times a week, from 14 days after inoculation) was “arrested”. The “Tunel staining, DNA fragmentation in tumors” value ([7]; xenograft tumors) was “detected DNA fragmentation”, the body weight ([8]; 9 mg/kg intraperitoneal, day 10) was “did not influence” and the “serum level of ALT” value [8, 9] was “did not influence”. For the same molecule, the “serum level of AST” value [8, 9] was “did not influence”.

With `O=c1oc2ccccc2cc1-c1cn2cc(Cc3ccc(Br)cc3)sc2n1` [Example compound 3] the EC50 [1] was 12.2 nM.

In the case of `O=c1oc2ccccc2cc1-c1cn2cc(Cc3cc(Cl)ccc3Cl)sc2n1` [Example compound 4], the EC50 [1] is reported as 15.9 nM.
